Experimental data taken from patent publication US20250049885A1, “HYALURONIC ACID BINDING PEPTIDE AS A THERAPEUTIC TO CONTROL FIBROBLAST ACTIVATION AND FIBROTIC CAPSULE FORMATION” (SOUTH DAKOTA BOARD OF REGENTS, priority 2023, published 2025).
Ends that are not written are not given here.

Experiments:
[1] = system: primary dermal fibroblasts; assay: Cell morphology and alignment on functionalized surfaces (brightfield); format: cell-based, human; conditions: vs cells on the other surface groups
Method: FIGS. 3A-B depicts primary dermal fibroblasts seeded at 50.000 cells/154 mm^2 and incubated for 10 days on HABP and Scrambled HABP functionalized surfaces. APTMS surfaces were treated with 2% APTMS only and Untreated surfaces had no treatment other than PBS rinse. […] Decellularization occurred on Day 11. (Representative of average and standard deviation; N=3; scale bar represents 100 μm). […] (Representative of average and standard deviation; N=6).
APTMS functionalized and untreated experimental groups were established.
Untreated and HABP functionalized surfaces did have some fibroblasts with higher levels of alignment, but the majority of fibroblast cells in those groups maintained a similar distribution of alignment to the APTMS cultures.

[2] = system: Col1 fibers deposited by dermal fibroblasts; assay: Type I Collagen immunostaining and fiber analysis (CT-Fire); format: cell-based, human; conditions: p-value<0.01
Excerpt: FIGS. 5A-G show Type I Collagen immunostaining results. FIG. 5A is a color cell culture stain: Fluorescent images of Col1 at 20× magnification. The scale bar represents 100 μm. FIG. 5B is a color image showing CT-Fire overlays of Col1 fibers from the above images, where different fiber characteristics are shown via different coloration. FIG. 5C is a graphical representation of the distribution of the number of Col1 fibers in each treatment group. FIG. 5D is a graphical representation of the distribution of Col1 fiber lengths in each treatment group. There is a notable difference between the APTMS group and the Untreated and HABP groups. FIG. 5E is a graphical representation of the measurement of fiber straightness. […] The closer the value is to one, the straighter individual fibers within the treatment groups are. FIG. 5F is a graphical representation of the Col1 fiber width comparison between treatment groups. […]
Immunostaining was done using α-SMA (D4K9N, Cell Signal) and Type I collagen primary antibodies. […] After this point, all further staining was conducted in the dark to preserve fluorescence. […]
Immunostaining for Type I Collagen (Col1) was done to determine the impact of the HABP surface treatment on ECM formation. […] Col1 fibers were analyzed and the analysis found significant differences in fiber angle, straightness, and width.

[3] = Live/Dead fluorescent staining of fibroblasts cultured on functionalized surfaces; format: cell-based, human; conditions: human; fibroblasts cultured on functionalized surface; read-out: Cell viability (Live/Dead)
Method: (§1) FIGS. 2A-C depict assessment of the cytocompatibility of the peptide treated surfaces using Live/Dead and PrestoBlue assays. Presto Blue assay is a measure of cellular metabolic activity. FIG. 2A is a color image of a cell culture: Calcein-AM (green) and Propidium Iodide (red) were used to stain for live and dead cells respectively.
(§2) Surface functionalization was done with 2% APTMS and 1 mM HABP. 2% APTMS (in 2-propanol) was treated on the surface for 6 hours in a wet chamber at room temperature. Following the end of the culture period, three washes with DI H2O were used to remove the residual APTMS. A 1 mM HABP in DI H2O solution was added to the surface and left overnight at 4° C. in the wet chamber. After the peptide treatment is completed, the surfaces were rinsed 5 times with PBS for 5 minutes each. These functionalized surfaces were used for HA binding verification and cell seeding experiments. Two other experimental groups were established: one with only the APTMS treatment, and one with no surface treatment (Table 2).
(§3) Human primary dermal fibroblasts (HDFs) were cultured in a culture media consisting of DMEM, 10% fetal bovine serum (FBS), and 1% penicillin-streptomycin (10,000 IU/mL). The cells were rinsed with warm 1×PBS to remove any traces of FBS from the surface, and a 0.25% trypsin/EDTA treatment was used to detach the cells from the culture flask at 37° C. for 5 minutes. 4 mL of fresh media was added to the cells to inhibit the trypsin, and the suspended cells were withdrawn from the flask, counted using a hemocytometer, and added to a 15 ml centrifuge tube. The cells were centrifuged for 5 minutes at 1500 rpms, and the media was withdrawn and replaced with a calculated amount of fresh media in which the cells were resuspended. The cells were added to the functionalized MatTek surfaces, and after 6 hours, 2 mL of media containing 100 μg/mL ascorbic acid was added. The cells were cultured for 48-96 hours before further experimentation was conducted. […]

[4] = system: normal human adult primary dermal fibroblasts; assay: as above; format: cell-based
Method: as §1, §2, §3

## CO[Si](CCCN)(OC)OC [APTMS, 3-aminopropyltrimethoxysilane]
[1]
  Cell morphology: slightly stressed morphology
[2]
  Col1 fiber width narrower than untreated cultures: 5%

## GAHWQFNALTVR [HABP, GAHWQFNALTVR]
[3]
  viability: 98.9%
[4]; HABP vs APTMS treated and untreated surfaces
  Cell viability vs control groups (Live/Dead): no significant difference
[4]; fibroblasts cultured on functionalized surface
  Cell viability (Live/Dead): 98.9%
